According to publication PMC5218480 (PLoS ONE, 2017):

Tested on: MV-4-11 cells
Experiment: Gene expression microarray analysis (Affymetrix PrimeView) and GSEA
Type: cell-based, human
Set-up: RFU PODN (11730768_x_at) / Fold change /veh PODN (11730768_x_at) / RFU LINC00158 (11744669_a_at) / Fold change /veh LINC00158 (11744669_a_at) / RFU DUSP10 (11751237_a_at) / Fold change /veh DUSP10 (11751237_a_at) / RFU ID3 (11757404_x_at) / Fold change /veh ID3 (11757404_x_at) / RFU PLEKHG5 (11737974_s_at) / Fold change /veh PLEKHG5 (11737974_s_at) / RFU LRRC4B (11730491_at) / Fold change /veh LRRC4B (11730491_at) / RFU GIMAP4 (11747438_a_at) / Fold change /veh GIMAP4 (11747438_a_at) / RFU KRT8 (11758183_x_at) / Fold change /veh KRT8 (11758183_x_at) / RFU CNN1 (11734310_a_at) / Fold change /veh CNN1 (11734310_a_at) / RFU VPS37D (11726825_at) / Fold change /veh VPS37D (11726825_at) / RFU C10orf10 (11716522_x_at) / Fold change /veh C10orf10 (11716522_x_at) / RFU KIR2DL2 /// KIR2DL4 /// KIR2DL5A /// KIR2DL5B /// KIR2DS1 /// KIR2DS2 /// KIR2DS3 /// KIR2DS4 /// KIR3DL3 /// KIR3DL3 /// KIR3DS1 (11738374_at) / Fold change /veh KIR2DL2 /// KIR2DL4 /// KIR2DL5A /// KIR2DL5B /// KIR2DS1 /// KIR2DS2 /// KIR2DS3 /// KIR2DS4 /// KIR3DL3 /// KIR3DL3 /// KIR3DS1 (11738374_at) / RFU C1QL1 (11718748_at) / Fold change /veh C1QL1 (11718748_at) / RFU TMPRSS4 (11747572_a_at) / Fold change /veh TMPRSS4 (11747572_a_at) / RFU HAMP (11756126_x_at) / Fold change /veh HAMP (11756126_x_at) / RFU RNFT2 (11725882_a_at) / Fold change /veh RNFT2 (11725882_a_at) / RFU NR4A2 (11747474_a_at) / Fold change /veh NR4A2 (11747474_a_at) / RFU ABCC12 (11746883_a_at) / Fold change /veh ABCC12 (11746883_a_at) / RFU TMEM136 (11760407_x_at) / Fold change /veh TMEM136 (11760407_x_at) / RFU CLDN22 /// WWC2 (11732394_at) / Fold change /veh CLDN22 /// WWC2 (11732394_at) / RFU HLA-DPB1 (11760878_x_at) / Fold change /veh HLA-DPB1 (11760878_x_at) / RFU SPINT1 (11716480_a_at) / Fold change /veh SPINT1 (11716480_a_at) / RFU GAP43 (11754022_s_at) / Fold change /veh GAP43 (11754022_s_at) / RFU A4GNT (11735810_at) / Fold change /veh A4GNT (11735810_at) / RFU PRB3 (11715151_x_at) / Fold change /veh PRB3 (11715151_x_at) / RFU TUBB4B (11761932_at) / Fold change /veh TUBB4B (11761932_at) / RFU CAPN14 (11732068_a_at) / Fold change /veh CAPN14 (11732068_a_at) / RFU TMCC2 (11721928_a_at) / Fold change /veh TMCC2 (11721928_a_at) / RFU IRGQ (11745062_a_at) / Fold change /veh IRGQ (11745062_a_at) / RFU FAM174B (11720279_a_at) / Fold change /veh FAM174B (11720279_a_at) / RFU TMPRSS4 (11748680_a_at) / Fold change /veh TMPRSS4 (11748680_a_at) / RFU FAM212B (11763350_a_at) / Fold change /veh FAM212B (11763350_a_at) / RFU PLEKHG5 (11743358_a_at) / Fold change /veh PLEKHG5 (11743358_a_at) / RFU ZSCAN30 (11745921_a_at) / Fold change /veh ZSCAN30 (11745921_a_at) / RFU CMKLR1 (11741424_a_at) / Fold change /veh CMKLR1 (11741424_a_at) / RFU LOC101060620 /// MAPK8IP1 (11723275_at) / Fold change /veh LOC101060620 /// MAPK8IP1 (11723275_at) / RFU SPTSSB (11747773_x_at) / Fold change /veh SPTSSB (11747773_x_at) / RFU PRSS12 (11739890_at) / Fold change /veh PRSS12 (11739890_at) / RFU BIN1 (11741810_x_at) / Fold change /veh BIN1 (11741810_x_at) / RFU WNT11 (11732464_a_at) / Fold change /veh WNT11 (11732464_a_at) / RFU C10orf10 (11716521_a_at) / Fold change /veh C10orf10 (11716521_a_at) / RFU C5orf56 (11738089_at) / Fold change /veh C5orf56 (11738089_at) / RFU CYB561 (11721691_x_at) / Fold change /veh CYB561 (11721691_x_at) / RFU ANKRD19P (11752326_a_at) / Fold change /veh ANKRD19P (11752326_a_at) / RFU OR2T12 /// OR2T33 /// OR2T8 (11738714_s_at) / Fold change /veh OR2T12 /// OR2T33 /// OR2T8 (11738714_s_at) / RFU VCAN (11748164_a_at) / Fold change /veh VCAN (11748164_a_at) / RFU JSRP1 (11732532_at) / Fold change /veh JSRP1 (11732532_at) / RFU KRTAP10-11 (11738290_x_at) / Fold change /veh KRTAP10-11 (11738290_x_at) / RFU MYO3A (11730013_a_at) / Fold change /veh MYO3A (11730013_a_at) / RFU EBF3 (11725865_a_at) / Fold change /veh EBF3 (11725865_a_at) / RFU CAMK2N1 (11719241_x_at) / Fold change /veh CAMK2N1 (11719241_x_at) / RFU C5orf56 (11738088_a_at) / Fold change /veh C5orf56 (11738088_a_at) / RFU OLFML3 (11715873_a_at) / Fold change /veh OLFML3 (11715873_a_at) / RFU LOC100653217 /// NTM (11731650_a_at) / Fold change /veh LOC100653217 /// NTM (11731650_a_at) / RFU MAPK11 (11762145_a_at) / Fold change /veh MAPK11 (11762145_a_at) / RFU FIZ1 (11724087_x_at) / Fold change /veh FIZ1 (11724087_x_at) / RFU OASL (11726364_x_at) / Fold change /veh OASL (11726364_x_at) / RFU SOX15 (11748057_x_at) / Fold change /veh SOX15 (11748057_x_at) / RFU CD79A (11719716_a_at) / Fold change /veh CD79A (11719716_a_at) / RFU HIST1H1D (11736915_at) / Fold change /veh HIST1H1D (11736915_at) / RFU CASKIN2 (11723855_a_at) / Fold change /veh CASKIN2 (11723855_a_at) / RFU LOC730098 (11760151_x_at) / Fold change /veh LOC730098 (11760151_x_at) / RFU OR4N2 (11742367_at) / Fold change /veh OR4N2 (11742367_at) / RFU PRRT2 (11749266_a_at) / Fold change /veh PRRT2 (11749266_a_at) / RFU SNX32 (11753110_a_at) / Fold change /veh SNX32 (11753110_a_at) / RFU CDHR5 (11726645_a_at) / Fold change /veh CDHR5 (11726645_a_at) / RFU RCAN1 (11760418_a_at) / Fold change /veh RCAN1 (11760418_a_at) / RFU FAM167A (11723789_a_at) / Fold change /veh FAM167A (11723789_a_at) / RFU FAM26E (11764081_at) / Fold change /veh FAM26E (11764081_at) / RFU ISYNA1 (11749810_s_at) / Fold change /veh ISYNA1 (11749810_s_at) / RFU ACY1 (11761880_at) / Fold change /veh ACY1 (11761880_at) / RFU 11764098_at / Fold change /veh 11764098_at / RFU SAMD14 (11745864_x_at) / Fold change /veh SAMD14 (11745864_x_at) / RFU NPB (11741838_a_at) / Fold change /veh NPB (11741838_a_at) / RFU TMPRSS6 (11731388_a_at) / Fold change /veh TMPRSS6 (11731388_a_at) / RFU KRTAP10-2 (11738614_at) / Fold change /veh KRTAP10-2 (11738614_at) / RFU ARHGAP8 /// PRR5-ARHGAP8 (11727945_x_at) / Fold change /veh ARHGAP8 /// PRR5-ARHGAP8 (11727945_x_at) / RFU KRTAP5-7 /// NADSYN1 (11734609_at) / Fold change /veh KRTAP5-7 /// NADSYN1 (11734609_at) / RFU RASL12 (11751679_a_at) / Fold change /veh RASL12 (11751679_a_at) / RFU CDKN2B (11736163_a_at) / Fold change /veh CDKN2B (11736163_a_at) / RFU PRF1 (11729649_at) / Fold change /veh PRF1 (11729649_at) / RFU, ZNF638 /// ZNF638-IT1 / Fold change vs veh, ZNF638 /// ZNF638-IT1 / RFU, PANK3 / Fold change vs veh, PANK3 / RFU, SH3YL1 / Fold change vs veh, SH3YL1 / RFU, ZEB2 / Fold change vs veh, ZEB2 / RFU, NRIP1 / Fold change vs veh, NRIP1 / RFU, PTTG1IP / Fold change vs veh, PTTG1IP / RFU, CAPN2 / Fold change vs veh, CAPN2 / RFU, MED14 / Fold change vs veh, MED14 / RFU, SNORA58 / Fold change vs veh, SNORA58 / RFU, C1orf63 / Fold change vs veh, C1orf63 / RFU, LRRFIP1 / Fold change vs veh, LRRFIP1 / RFU, NDUFAF7 / Fold change vs veh, NDUFAF7 / RFU, SLC12A2 / Fold change vs veh, SLC12A2 / RFU, IBTK / Fold change vs veh, IBTK / RFU, ESF1 / Fold change vs veh, ESF1 / Fold change vs veh, TMEM50B / RFU, TAOK1 / Fold change vs veh, TAOK1 / RFU, ACBD3 / Fold change vs veh, ACBD3 / RFU, TMA16 / Fold change vs veh, TMA16 / RFU, RWDD3 / Fold change vs veh, RWDD3 / RFU, BCAT1 / Fold change vs veh, BCAT1 / RFU, EDEM3 / Fold change vs veh, EDEM3 / RFU, TMEM33 / Fold change vs veh, TMEM33 / RFU, WDR75 / Fold change vs veh, WDR75 / RFU, AHCTF1 / Fold change vs veh, AHCTF1 / RFU, TFRC / Fold change vs veh, TFRC / RFU, ZDHHC17 / Fold change vs veh, ZDHHC17 / RFU, NOM1 / Fold change vs veh, NOM1 / RFU, ARL8B / Fold change vs veh, ARL8B / RFU, ZBTB11 / Fold change vs veh, ZBTB11 / RFU, TAMM41 / Fold change vs veh, TAMM41 / RFU, KIAA1704 /// LOC100996395 / Fold change vs veh, KIAA1704 /// LOC100996395 / RFU, ING1 / Fold change vs veh, ING1 / RFU, TRMT61B / Fold change vs veh, TRMT61B / RFU, FUBP3 / Fold change vs veh, FUBP3 / RFU, TP53 / Fold change vs veh, TP53 / RFU, TNKS2 / Fold change vs veh, TNKS2 / RFU, ZFP14 / Fold change vs veh, ZFP14 / RFU, ACTR2 / Fold change vs veh, ACTR2 / RFU, PPP3R1 / Fold change vs veh, PPP3R1 / RFU, PIK3R1 / Fold change vs veh, PIK3R1 / RFU, HNRNPA1 / Fold change vs veh, HNRNPA1 / RFU, RNF170 / Fold change vs veh, RNF170 / RFU, ZNF28 / Fold change vs veh, ZNF28 / RFU, RNGTT / Fold change vs veh, RNGTT / RFU, OGT / Fold change vs veh, OGT / RFU, BRD1 / Fold change vs veh, BRD1 / RFU, MARS / Fold change vs veh, MARS / RFU, ZNF655 / Fold change vs veh, ZNF655 / RFU, FAHD1 / Fold change vs veh, FAHD1 / RFU, BDP1 / Fold change vs veh, BDP1 / RFU, LRRCC1 / Fold change vs veh, LRRCC1 / RFU, ARID1A / Fold change vs veh, ARID1A / RFU, ZNF146 / Fold change vs veh, ZNF146 / RFU, ZNF330 / Fold change vs veh, ZNF330 / RFU, GPN3 / Fold change vs veh, GPN3 / RFU, C9orf123 / Fold change vs veh, C9orf123 / RFU, N4BP2L2 / Fold change vs veh, N4BP2L2 / RFU, ARFIP1 / Fold change vs veh, ARFIP1 / RFU, FAM179B / Fold change vs veh, FAM179B / RFU, BCL10 / Fold change vs veh, BCL10 / RFU, UHRF1BP1L / Fold change vs veh, UHRF1BP1L / RFU, BET1 / Fold change vs veh, BET1 / RFU, CNOT2 / Fold change vs veh, CNOT2 / RFU, ZNF268 / Fold change vs veh, ZNF268 / Fold change vs veh, ZNF507 / RFU, DGCR2 / Fold change vs veh, DGCR2 / RFU, WDSUB1 / Fold change vs veh, WDSUB1 / Fold change vs veh, HSP90B1 /// MIR3652 / RFU, ADSS / Fold change vs veh, ADSS / RFU, GK / Fold change vs veh, GK / RFU, ZNF148 / Fold change vs veh, ZNF148 / RFU, TAF9 / Fold change vs veh, TAF9 / RFU, SLC1A5 / Fold change vs veh, SLC1A5 / RFU, SLMO2 / Fold change vs veh, SLMO2 / RFU, ABCC4 / Fold change vs veh, ABCC4 / RFU, LOC101060439 /// RAP1B / Fold change vs veh, LOC101060439 /// RAP1B / RFU, RFX7 / Fold change vs veh, RFX7 / RFU, GTPBP10 / Fold change vs veh, GTPBP10 / RFU, CNEP1R1 / Fold change vs veh, CNEP1R1 / RFU, BIVM-ERCC5 /// ERCC5 / Fold change vs veh, BIVM-ERCC5 /// ERCC5 / RFU, ILF3 / Fold change vs veh, ILF3 / RFU 11762660_at / Fold change /veh 11762660_at / RFU VCAN (11757783_s_at) / Fold change /veh VCAN (11757783_s_at) / RFU DDX43 (11728927_at) / Fold change /veh DDX43 (11728927_at) / RFU KRT8 (11758188_x_at) / Fold change /veh KRT8 (11758188_x_at) / RFU NKD1 (11759106_at) / Fold change /veh NKD1 (11759106_at) / RFU SRD5A1 (11742802_a_at) / Fold change /veh SRD5A1 (11742802_a_at) / RFU TPSAB1 /// TPSB2 (11721975_s_at) / Fold change /veh TPSAB1 /// TPSB2 (11721975_s_at) / RFU GSTM3 (11746129_a_at) / Fold change /veh GSTM3 (11746129_a_at) / RFU IL23R (11737362_x_at) / Fold change /veh IL23R (11737362_x_at) / RFU TMEM51 (11727254_a_at) / Fold change /veh TMEM51 (11727254_a_at) / RFU PIWIL2 (11732686_x_at) / Fold change /veh PIWIL2 (11732686_x_at) / RFU ORM1 (11744905_x_at) / Fold change /veh ORM1 (11744905_x_at) / RFU CCDC152 (11743942_at) / Fold change /veh CCDC152 (11743942_at) / RFU ECM1 (11717891_a_at) / Fold change /veh ECM1 (11717891_a_at) / RFU IL23R (11748794_a_at) / Fold change /veh IL23R (11748794_a_at) / RFU TNFAIP8L3 (11732012_x_at) / Fold change /veh TNFAIP8L3 (11732012_x_at) / RFU MBOAT4 (11741988_at) / Fold change /veh MBOAT4 (11741988_at) / RFU 11764193_at / Fold change /veh 11764193_at / RFU TMEM53 (11763286_at) / Fold change /veh TMEM53 (11763286_at) / RFU MAGEB2 (11727129_at) / Fold change /veh MAGEB2 (11727129_at) / RFU TMEM200A (11744735_a_at) / Fold change /veh TMEM200A (11744735_a_at) / RFU CCDC152 (11751479_a_at) / Fold change /veh CCDC152 (11751479_a_at) / RFU FAM211A (11726209_a_at) / Fold change /veh FAM211A (11726209_a_at) / RFU RGS16 (11746705_a_at) / Fold change /veh RGS16 (11746705_a_at) / RFU VCAN (11755009_s_at) / Fold change /veh VCAN (11755009_s_at) / RFU RHOB (11743442_s_at) / Fold change /veh RHOB (11743442_s_at) / RFU RGS16 (11720943_a_at) / Fold change /veh RGS16 (11720943_a_at) / RFU RGS16 (11720944_at) / Fold change /veh RGS16 (11720944_at) / RFU, VPS4B / Fold change vs veh, VPS4B / RFU, CREB1 / Fold change vs veh, CREB1 / RFU, DNAJC13 / Fold change vs veh, DNAJC13 / RFU, GNAQ / Fold change vs veh, GNAQ / RFU, CDK5R1 / Fold change vs veh, CDK5R1 / RFU, ZRANB3 / Fold change vs veh, ZRANB3 / RFU, CUL4A / Fold change vs veh, CUL4A / RFU, CCNY / Fold change vs veh, CCNY / RFU, UFL1 / Fold change vs veh, UFL1 / RFU, COG3 / Fold change vs veh, COG3 / RFU, DIAPH2 / Fold change vs veh, DIAPH2 / RFU, SKA2 / Fold change vs veh, SKA2 / RFU, AFF3 / Fold change vs veh, AFF3 / RFU, LMF1 / Fold change vs veh, LMF1 / RFU, IPO11 / Fold change vs veh, IPO11 / RFU, DFFB / Fold change vs veh, DFFB / RFU, FOXP1 / Fold change vs veh, FOXP1 / RFU, CARD8 / Fold change vs veh, CARD8 / RFU, STRN3 / Fold change vs veh, STRN3 / RFU, ADK / Fold change vs veh, ADK / RFU, RASSF2 / Fold change vs veh, RASSF2 / RFU, WIPF1 / Fold change vs veh, WIPF1 / RFU, LARP1B / Fold change vs veh, LARP1B / RFU, RASA1 / Fold change vs veh, RASA1 / RFU, RB1 / Fold change vs veh, RB1 / RFU, PPFIA1 / Fold change vs veh, PPFIA1 / RFU, MAT2A / Fold change vs veh, MAT2A / RFU, CCT5 / Fold change vs veh, CCT5 / RFU, WDR92 / Fold change vs veh, WDR92 / RFU, CUX1 / Fold change vs veh, CUX1 / RFU, TTC7A / Fold change vs veh, TTC7A / RFU, TMEM135 / Fold change vs veh, TMEM135 / RFU, DEPTOR / Fold change vs veh, DEPTOR / RFU, CPM / Fold change vs veh, CPM / RFU, DNAJB6 / Fold change vs veh, DNAJB6 / RFU, CACNA2D3 / Fold change vs veh, CACNA2D3 / RFU, DTX4 / Fold change vs veh, DTX4 / RFU, TFCP2 / Fold change vs veh, TFCP2 / RFU, GMCL1 /// GMCL1P1 / Fold change vs veh, GMCL1 /// GMCL1P1 / RFU, AEBP2 / Fold change vs veh, AEBP2 / RFU, SNHG1 /// SNORD22 /// SNORD25 /// SNORD26 /// SNORD27 /// SNORD28 /// SNORD29 /// SNORD31 / Fold change vs veh, SNHG1 /// SNORD22 /// SNORD25 /// SNORD26 /// SNORD27 /// SNORD28 /// SNORD29 /// SNORD31 / Fold change (Aza/veh), C12orf56 (ProbeSet 11735607_a_at) / Fold change (ACY-1035/veh), C12orf56 (ProbeSet 11735607_a_at) / Fold change (Aza/veh), FGFR1OP (ProbeSet 11751329_s_at) / Fold change (ACY-1035/veh), FGFR1OP (ProbeSet 11751329_s_at) / Fold change (Aza/veh), VPS36 (ProbeSet 11739960_a_at) / Fold change (ACY-1035/veh), VPS36 (ProbeSet 11739960_a_at) / RFU SYPL1 (11715823_x_at) / Fold change /veh SYPL1 (11715823_x_at) / RFU IGFBP7 (11715501_s_at) / Fold change /veh IGFBP7 (11715501_s_at) / RFU REEP3 (11722064_at) / Fold change /veh REEP3 (11722064_at) / RFU IGLL1 (11728026_x_at) / Fold change /veh IGLL1 (11728026_x_at): dose or concentration left out as unconfirmed
Details: ProbeSet 11732281_s_at; LIST D

Nc1ccc(-c2cccs2)cc1NC(=O)c1ccc2c(c1)cc(C1CC1)n2CCN1CCOCC1 [ACY-1035] was tested. Which “Fold change vs veh, FOXP1” value did it give?
The value was 0.88.
